This passage reports Emax and DC50 results from US20230002367A1, “BIFUNCTIONAL COMPOUNDS” (Hoffmann-La Roche Inc., priority 2019, published 2023).

The target of the assay is T1, SMARCA2 (Homo sapiens, UniProt P51531).
T1 construct: endogenous in cells
Briefly: SMARCA2 HiBiT degradation assay (cellular). As to conditions: for DC50: read-out: HiBit A549 SMARCA2 IP. The class given is cell-based. (With HiBiT, luminescence reflects the tagged protein that the partner subunit can reach.)

Setting [1] is: A549, Emax = amount of residual protein remaining in the cell following compound treatment.
Where [2] appears, read: SMARCA2 HiBiT cells, luminescence readout, 11-point titration from 10 μM, 6 hours or 16 hours.

Read-outs that look alike come from different tables or passages of the source.

T1 sequence (P51531 whole entry): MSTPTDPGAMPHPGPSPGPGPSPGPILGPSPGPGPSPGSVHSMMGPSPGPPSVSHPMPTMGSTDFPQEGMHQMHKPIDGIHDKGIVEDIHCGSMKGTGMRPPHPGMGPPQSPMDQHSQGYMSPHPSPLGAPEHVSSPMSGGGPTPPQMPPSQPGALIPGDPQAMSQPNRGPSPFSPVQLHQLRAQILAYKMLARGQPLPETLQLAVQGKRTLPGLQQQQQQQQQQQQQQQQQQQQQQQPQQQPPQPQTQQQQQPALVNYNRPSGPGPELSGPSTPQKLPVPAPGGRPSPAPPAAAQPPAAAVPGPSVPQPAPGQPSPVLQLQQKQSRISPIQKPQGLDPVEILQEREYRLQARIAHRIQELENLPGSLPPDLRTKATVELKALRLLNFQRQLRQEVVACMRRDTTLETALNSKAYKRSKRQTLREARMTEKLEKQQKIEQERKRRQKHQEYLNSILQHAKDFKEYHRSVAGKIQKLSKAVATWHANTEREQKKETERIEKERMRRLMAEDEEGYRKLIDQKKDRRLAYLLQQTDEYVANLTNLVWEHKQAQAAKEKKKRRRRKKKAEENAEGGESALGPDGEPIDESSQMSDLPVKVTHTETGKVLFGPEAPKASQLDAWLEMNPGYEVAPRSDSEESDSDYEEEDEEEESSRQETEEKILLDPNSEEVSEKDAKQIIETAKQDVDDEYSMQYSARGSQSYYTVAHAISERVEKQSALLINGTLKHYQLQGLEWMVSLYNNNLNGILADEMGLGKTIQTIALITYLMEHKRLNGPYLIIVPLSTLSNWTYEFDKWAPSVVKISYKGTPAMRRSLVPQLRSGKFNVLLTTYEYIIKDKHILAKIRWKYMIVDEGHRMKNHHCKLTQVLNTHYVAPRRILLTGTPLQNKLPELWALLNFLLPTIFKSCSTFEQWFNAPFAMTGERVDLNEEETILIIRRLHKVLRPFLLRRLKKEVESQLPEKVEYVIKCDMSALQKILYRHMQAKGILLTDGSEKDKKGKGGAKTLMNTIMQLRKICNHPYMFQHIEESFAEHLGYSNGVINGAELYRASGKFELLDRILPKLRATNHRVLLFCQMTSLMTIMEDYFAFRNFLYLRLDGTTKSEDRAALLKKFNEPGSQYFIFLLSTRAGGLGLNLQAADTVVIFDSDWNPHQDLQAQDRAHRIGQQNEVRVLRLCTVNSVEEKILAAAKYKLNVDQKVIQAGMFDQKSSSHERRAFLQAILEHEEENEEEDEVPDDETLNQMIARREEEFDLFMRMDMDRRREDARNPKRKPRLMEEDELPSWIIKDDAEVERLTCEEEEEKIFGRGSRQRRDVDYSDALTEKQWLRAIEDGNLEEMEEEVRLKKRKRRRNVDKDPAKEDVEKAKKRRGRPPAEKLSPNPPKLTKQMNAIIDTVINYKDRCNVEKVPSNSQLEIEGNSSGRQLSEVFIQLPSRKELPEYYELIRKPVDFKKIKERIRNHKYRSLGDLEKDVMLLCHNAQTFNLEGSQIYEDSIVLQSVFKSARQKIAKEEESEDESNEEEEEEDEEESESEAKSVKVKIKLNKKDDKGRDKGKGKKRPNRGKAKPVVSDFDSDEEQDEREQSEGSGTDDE

`Cc1ncsc1-c1ccc(CNC(=O)[C@@H]2C[C@@H](O)CN2C(=O)[C@@H](NC(=O)CCCCCCCCC(=O)N2CC(Oc3cc(-c4ccccc4O)nnc3N)CC(c3ccccc3)C2)C(C)(C)C)cc1` (mixture of isomers) [Example 65, rac-(2S,4R)-4-hydroxy-N-[[4-(4-methylthiazol-5-yl)phenyl]methyl]-1-[rac-(2S)-2-[[10-[3-[3-amino-6-(2-hydroxyphenyl)pyridazin-4-yl]oxy-5-phenyl-1-piperidyl]-10-oxo-decanoyl]amino]-3,3-dimethyl-butanoyl]pyrrolidine-2-carboxamide]: the Emax (in general, the size of the effect at its maximum, as opposed to the concentration needed) under setting [1] worked out at 24%. For the same compound, the DC50 under setting [2] is 1030 nM.

Regarding `Cc1ncsc1-c1ccc(CNC(=O)[C@@H]2C[C@@H](O)CN2C(=O)[C@@H](NC(=O)CCCCCCCCC(=O)N2C3CCCC2CN(c2cc(-c4ccccc4O)nnc2N)C3)C(C)(C)C)cc1` [Example 19, (2S,4R)-1-[(2S)-2-[[10-[3-[3-Amino-6-(2-hydroxyphenyl)pyridazin-4-yl]-3,9-diazabicyclo[3.3.1]nonan-9-yl]-10-oxo-decanoyl]amino]-3,3-dimethyl-butanoyl]-4-hydroxy-N-[[4-(4-methylthiazol-5-yl)phenyl]methyl]pyrrolidine-2-carboxamide], under setting [1], the Emax worked out at 18%. In addition, the DC50 under setting [2] was 754 nM.

On to `Cc1ncsc1-c1ccc(CNC(=O)[C@@H]2C[C@@H](O)CN2C(=O)C(NC(=O)CCCCCCC(=O)N2CCC3(CC2)CCN(c2cc(-c4ccccc4O)nnc2N)CC3)C(C)(C)C)cc1` (stereo in doubt) [Example 6, (2S,4R)-1-[(2R)-2-[[8-[9-[3-amino-6-(2-hydroxyphenyl)pyridazin-4-yl]-3,9-diazaspiro[5.5]undecan-3-yl]-8-oxo-octanoyl]amino]-3,3-dimethyl-butanoyl]-4-hydroxy-N-[[4-(4-methylthiazol-5-yl)phenyl]methyl]pyrrolidine-2-carboxamide], for which, under setting [1], the Emax is 54%. The DC50 under setting [2] was determined as 2910 nM.

In the case of `Cc1ncsc1-c1ccc(CNC(=O)[C@@H]2C[C@@H](O)CN2C(=O)[C@@H](NC(=O)CCCCCCCCC(=O)N2CCN(Cc3cccc(C#Cc4cc(-c5ccccc5O)nnc4N)c3)CC2)C(C)(C)C)cc1` [Example 53, (2S,4R)-1-[(2S)-2-[[10-[4-[[3-[2-[3-amino-6-(2-hydroxyphenyl)pyridazin-4-yl]ethynyl]phenyl]methyl]piperazin-1-yl]-10-oxo-decanoyl]amino]-3,3-dimethyl-butanoyl]-4-hydroxy-N-[[4-(4-methylthiazol-5-yl)phenyl]methyl]pyrrolidine-2-carboxamide], the Emax under setting [1] was determined as 44%. Also, the DC50 under setting [2] turned out to be 240 nM.

Compound `Cc1ncsc1-c1ccc([C@H](C)NC(=O)[C@@H]2C[C@@H](O)CN2C(=O)[C@@H](NC(=O)CCCCCC(=O)N2CCN(CCOc3cccc(N4CCCC(Oc5cc(-c6ccccc6O)nnc5N)C4)c3)CC2)C(C)(C)C)cc1` (mixture of isomers) [Example 70, rac-(2S,4R)-4-hydroxy-1-[rac-(2S)-2-[[7-[4-[2-[3-[3-[3-amino-6-(2-hydroxyphenyl)pyridazin-4-yl]oxy-1-piperidyl]phenoxy]ethyl]piperazin-1-yl]-7-oxo-heptanoyl]amino]-3,3-dimethyl-butanoyl]-N-[rac-(1S)-1-[4-(4-methylthiazol-5-yl)phenyl]ethyl]pyrrolidine-2-carboxamide] registered an Emax under setting [1] of 50%. Also, the DC50 under setting [2] was 1180 nM.

As for `Cc1ncsc1-c1ccc([C@H](C)NC(=O)[C@@H]2C[C@@H](O)CN2C(=O)[C@@H](NC(=O)CCCCCCCCC(=O)N2CCN(C(=O)c3ccc(OC4CN(c5cc(-c6ccccc6O)nnc5N)C4)cc3)CC2)C(C)(C)C)cc1` [Example 104, (2S,4R)-1-[(2S)-2-[[10-[4-[4-[1-[3-amino-6-(2-hydroxyphenyl)pyridazin-4-yl]azetidin-3-yl]oxybenzoyl]piperazin-1-yl]-10-oxo-decanoyl]amino]-3,3-dimethyl-butanoyl]-4-hydroxy-N-[(1S)-1-[4-(4-methylthiazol-5-yl)phenyl]ethyl]pyrrolidine-2-carboxamide], under setting [1], the Emax was found to be 54%. Besides, the DC50 under setting [2] turned out to be 375 nM.

As for `Cc1ncsc1-c1ccc(CNC(=O)[C@@H]2C[C@@H](O)CN2C(=O)[C@@H](NC(=O)CCCCCCCCC(=O)NCC(COc2cc(-c3ccccc3O)nnc2N)c2ccccc2)C(C)(C)C)cc1` (stereo partly drawn) [Example 50, N1-(3-((3-amino-6-(2-hydroxyphenyl)pyridazin-4-yl)oxy)-2-phenylpropyl)-N10-((S)-1-((2S,4R)-4-hydroxy-2-((4-(4-methylthiazol-5-yl)benzyl)carbamoyl)pyrrolidin-1-yl)-3,3-dimethyl-1-oxobutan-2-yl)decanediamide], the Emax under setting [1] worked out at 63%. Also, the DC50 under setting [2] turned out to be 2150 nM.

In turn, `Cc1ncsc1-c1ccc(CNC(=O)[C@@H]2C[C@@H](O)CN2C(=O)[C@H](NC(=O)CCCCCCC(=O)N2CCN(CCOc3cccc(N4C5CCC4CN(c4cc(-c6ccccc6O)nnc4N)C5)c3)CC2)C(C)(C)C)cc1` [Example 8, (2S,4R)-1-[(2R)-2-[[8-[4-[2-[3-[3-[3-amino-6-(2-hydroxyphenyl)pyridazin-4-yl]-3,8-diazabicyclo[3.2.1]octan-8-yl]phenoxy]ethyl]piperazin-1-yl]-8-oxo-octanoyl]amino]-3,3-dimethyl-butanoyl]-4-hydroxy-N-[[4-(4-methylthiazol-5-yl)phenyl]methyl]pyrrolidine-2-carboxamide] came in with an Emax under setting [1] of 48%. Moreover, the DC50 under setting [2] was 610 nM.

In turn, `Cc1ncsc1-c1ccc(CNC(=O)[C@@H]2C[C@@H](O)CN2C(=O)[C@@H](NC(=O)CCCCCCCCC(=O)N2CCN(Cc3cccc(-c4cc(-c5ccccc5O)nnc4N)c3F)CC2)C(C)(C)C)cc1` [Example 74, (2S,4R)-1-[(2S)-2-[[10-[4-[[3-[3-amino-6-(2-hydroxyphenyl)pyridazin-4-yl]-2-fluoro-phenyl]methyl]piperazin-1-yl]-10-oxo-decanoyl]amino]-3,3-dimethyl-butanoyl]-4-hydroxy-N-[[4-(4-methylthiazol-5-yl)phenyl]methyl]pyrrolidine-2-carboxamide] displayed an Emax under setting [1] of 63%. In addition, under setting [2], the DC50 was 575 nM.

`Cc1ncsc1-c1ccc([C@H](C)NC(=O)[C@@H]2C[C@@H](O)CN2C(=O)[C@@H](NC(=O)CCCCCC(=O)N2CCOC3(CCN(c4cc(-c5ccccc5O)nnc4N)CC3)C2)C(C)(C)C)cc1` [Example 43, (2S,4R)-1-[(2S)-2-[[7-[9-[3-amino-6-(2-hydroxyphenyl)pyridazin-4-yl]-1-oxa-4,9-diazaspiro[5.5]undecan-4-yl]-7-oxo-heptanoyl]amino]-3,3-dimethyl-butanoyl]-4-hydroxy-N-[(1S)-1-[4-(4-methylthiazol-5-yl)phenyl]ethyl]pyrrolidine-2-carboxamide] had an Emax under setting [1] of 23%. The DC50 under setting [2] was 749 nM.

`Cc1ncsc1-c1ccc([C@H](C)NC(=O)[C@@H]2C[C@@H](O)CN2C(=O)[C@@H](NC(=O)CCOCCC(=O)N2CCN(c3ccc(CN4CCCC(Oc5cc(-c6ccccc6O)nnc5N)C4)cc3)CC2)C(C)(C)C)cc1` (mixture of isomers) [Example 38, rac-(2S,4R)-4-hydroxy-1-[rac-(2S)-2-[3-[3-[4-[4-[[3-[3-amino-6-(2-hydroxyphenyl)pyridazin-4-yl]oxy-1-piperidyl]methyl]phenyl]piperazin-1-yl]-3-oxo-propoxy]propanoylamino]-3,3-dimethyl-butanoyl]-N-[rac-(1S)-1-[4-(4-methylthiazol-5-yl)phenyl]ethyl]pyrrolidine-2-carboxamide]: the Emax under setting [1] came to 70%. Besides, the DC50 under setting [2] was determined as 589 nM.

Under setting [1], `Cc1ncsc1-c1ccc(CNC(=O)[C@@H]2C[C@@H](O)CN2C(=O)[C@@H](NC(=O)CCCCCCCCCCC(=O)N2CCN(Cc3cccc(C#Cc4cc(-c5ccccc5O)nnc4N)c3)CC2)C(C)(C)C)cc1` [Example 54, (2S,4R)-1-[(2S)-2-[[12-[4-[[3-[2-[3-amino-6-(2-hydroxyphenyl)pyridazin-4-yl]ethynyl]phenyl]methyl]piperazin-1-yl]-12-oxo-dodecanoyl]amino]-3,3-dimethyl-butanoyl]-4-hydroxy-N-[[4-(4-methylthiazol-5-yl)phenyl]methyl]pyrrolidine-2-carboxamide] yielded an Emax of 35%. Also, under setting [2], the DC50 is 503 nM.

`Cc1ncsc1-c1ccc(CNC(=O)[C@@H]2C[C@@H](O)CN2C(=O)[C@@H](NC(=O)CCCCCCCCC(=O)NCC(COc2cc(-c3ccccc3O)nnc2N)c2ccccc2)C(C)(C)C)cc1` (mixture of isomers) [Example 51, N-[3-[3-amino-6-(2-hydroxyphenyl)pyridazin-4-yl]oxy-2-phenyl-propyl]-N′-[rac-(1S)-2,2-dimethyl-1-[rac-(2S,4R)-4-hydroxy-2-[[4-(4-methylthiazol-5-yl)phenyl]methylcarbamoyl]pyrrolidine-1-carbonyl]propyl]decanediamide]: the Emax under setting [1] was 48%. In addition, the DC50 under setting [2] stood at 1650 nM.

The compound `Cc1ncsc1-c1ccc(CNC(=O)[C@@H]2C[C@@H](O)CN2C(=O)[C@@H](NC(=O)CCCCCC(=O)N2CC(Oc3cc(-c4ccccc4O)nnc3N)CC(c3ccccc3)C2)C(C)(C)C)cc1` (mixture of isomers) [Example 66, Trans rac-(2S,4R)-4-hydroxy-N-[[4-(4-methylthiazol-5-yl)phenyl]methyl]-1-[rac-(2S)-2-[[7-[3-[3-amino-6-(2-hydroxyphenyl)pyridazin-4-yl]oxy-5-phenyl-1-piperidyl]-7-oxo-heptanoyl]amino]-3,3-dimethyl-butanoyl]pyrrolidine-2-carboxamide] gave an Emax under setting [1] of 49%. Moreover, the DC50 under setting [2] amounted to 2020 nM.

As for `Cc1ncsc1-c1ccc(CNC(=O)[C@@H]2C[C@@H](O)CN2C(=O)[C@@H](NC(=O)CCCCCC(=O)N2CCN(c3ccc(N4CCCC(Oc5cc(-c6cc(F)ccc6O)nnc5N)C4)cc3)CC2)C(C)(C)C)cc1` (mixture of isomers) [Example 109, rac-(2S,4R)-4-hydroxy-N-[[4-(4-methylthiazol-5-yl)phenyl]methyl]-1-[rac-(2S)-2-[[7-[4-[4-[3-[3-amino-6-(5-fluoro-2-hydroxy-phenyl)pyridazin-4-yl]oxy-1-piperidyl]phenyl]piperazin-1-yl]-7-oxo-heptanoyl]amino]-3,3-dimethyl-butanoyl]pyrrolidine-2-carboxamide], the Emax (A549, different HIBIT SMARCA2 clone (footnote a), residual protein remaining) was found to be 23%. For the same compound, the DC50 (different HIBIT SMARCA2 clone (footnote a)) is 285 nM.
